Test results published in patent publication US20260152527A1, “NOVEL MELANOCORTIN ANALOGS” (priority 2022, published 2026).
Positions of bridges follow the written chain, without caps; N, C: chain ends. Non-standard residues stand in square brackets, D forms with d. Residues, ends and D or L forms follow the SMILES beside them. Triazole bridges read from a SMILES are 1,4-linked. dPhe(4-CF3) = N[C@H](Cc1ccc(C(F)(F)F)cc1)C(=O)O; Lys(N3) = [N-]=[N+]=NCCCC[C@H](N)C(=O)O; Orn(N3) = [N-]=[N+]=NCCC[C@H](N)C(=O)O; NMeH = CN[C@@H](Cc1c[nH]cn1)C(=O)O; NMeR = CN[C@@H](CCCNC(=N)N)C(=O)O; dNMeF = CN[C@H](Cc1ccccc1)C(=O)O; hArg = N=C(N)NCCCC[C@H](N)C(=O)O; R8 = C=CCCCCCC[C@@](C)(N)C(=O)O; Aad = N[C@@H](CCCC(=O)O)C(=O)O; S5 = C=CCCC[C@](C)(N)C(=O)O; Hpra = C#CCC[C@H](N)C(=O)O; dPra = C#CC[C@@H](N)C(=O)O; Nle = CCCC[C@H](N)C(=O)O; Pra = C#CC[C@H](N)C(=O)O

Tests used:
Format in all cases: cell-based
[1] = biological target: T1, human recombinant MC5R (Homo sapiens, UniProt P33032); test: Ca2+ signalling functional assay, MC5R stable cell line (CHO-K1/Ga15); settings: calcium flux functional assay
T1 construct: host or cells: CHO-K1/Ga15
T1 sequence (P33032 whole entry): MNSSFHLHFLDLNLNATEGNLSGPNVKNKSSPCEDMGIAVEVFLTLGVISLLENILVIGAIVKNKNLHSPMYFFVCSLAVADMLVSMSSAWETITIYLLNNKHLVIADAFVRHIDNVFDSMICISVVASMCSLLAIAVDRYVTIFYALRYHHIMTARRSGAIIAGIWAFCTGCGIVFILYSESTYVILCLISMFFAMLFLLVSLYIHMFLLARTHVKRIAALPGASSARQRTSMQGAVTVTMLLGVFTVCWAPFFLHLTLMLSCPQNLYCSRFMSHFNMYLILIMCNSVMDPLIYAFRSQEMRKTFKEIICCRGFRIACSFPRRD
Description: The Ca^2+ signalling functional assay was performed on a human recombinant MC5R stable cell line (CHO-K1/Ga15, GenScript). The cells were cultured at 37° C. and 5% C02 with culture medium (90% Ham's F-12K (Kaighn's)+10% FBS+400 μg/mL G418+100 μg/mL Hygromycin B). Cells were washed with PBS and then detached by incubation with 0.05% (w/v) Trypsin EDTA at 37° C. for 2 to 5 mins. Detached cells were suspended in Ham's F-12K (Kaighn's) (containing 10% FBS) and a 50 μL cell suspension is seeded into each well of a 384-well assay plate at a density of 15,000 cells/well. Cells were allowed to settle overnight at 37° C., 5% CO2. […] Then, 100 nL of compounds were transferred to the compound plate by the Echo machine. Thirty microliter assay buffer was added to the compounds plate and then shaken for 20-40 minutes. The plates were placed on the FLIPR and 15 μL of the compound was added to each well, then calcium flux signal was measured.

[2] = biological target: T2, human recombinant MC1R (Homo sapiens, UniProt Q01726); test: cyclic AMP (cAMP) functional assay, MC1R stable cell line (CHO-K1); settings: cAMP functional assay;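 further: cells with test compound for 60 min at room temperature in buffer containing IBMX, then cAMP quantified by Eu-cAMP tracer and ULight anti-cAMP detection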
T2 construct: host or cells: CHO-K1
T2 sequence (Q01726 whole entry): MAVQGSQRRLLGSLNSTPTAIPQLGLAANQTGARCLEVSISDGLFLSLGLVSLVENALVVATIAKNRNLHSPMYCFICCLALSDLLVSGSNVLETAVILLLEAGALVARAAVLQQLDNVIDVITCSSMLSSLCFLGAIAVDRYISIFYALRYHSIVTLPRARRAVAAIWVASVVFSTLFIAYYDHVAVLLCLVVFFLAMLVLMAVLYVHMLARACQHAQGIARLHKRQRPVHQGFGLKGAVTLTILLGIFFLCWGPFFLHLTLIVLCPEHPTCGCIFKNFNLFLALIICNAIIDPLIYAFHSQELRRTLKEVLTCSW
Description: The cyclic AMP (cAMP) functional assay was performed on a human recombinant MC1R stable cell line (CHO-K1, GenScript). The cells were cultured at 37° C. and 5% CO2 with culture medium (90% Ham's F-12K (Kaighn's)+10% FBS+400 μg/mL G418). […] Then, 100 nL of compounds were transferred to the assay plate by the Echo machine. Cells were washed with PBS and then detached by incubation with 0.05% (w/v) Trypsin EDTA at 37° C. for 2 to 5 mins. Cells were collected with stimulation buffer (1×HBSS with 5 mM HEPES+0.2 mM IBMX+0.1% BSA) and 10 ul of cells (the density of 2,500 cells/well) solution was transferred to assay plate, centrifuged at 600 rpm for 3 min and then incubated with compounds at room temperature for 60 min. After that, 5 μL 4×Eu-cAMP tracer solution and 5 μL 4×ULight™-anti-cAMP solution was added into the cells, centrifuged at 600 rpm for 3 min and incubated for 60 min. The cAMP signal was detected with Envision® Multimode Plate Reader (PerkinElmer).

[3] = biological target: T3, human recombinant MC4R (Homo sapiens, UniProt P32245); test: Ca2+ signalling functional assay, MC4R stable cell line (CHO-K1/Gα15); settings: calcium flux functional assay
T3 construct: host or cells: CHO-K1/Gα15
T3 sequence (P32245 whole entry): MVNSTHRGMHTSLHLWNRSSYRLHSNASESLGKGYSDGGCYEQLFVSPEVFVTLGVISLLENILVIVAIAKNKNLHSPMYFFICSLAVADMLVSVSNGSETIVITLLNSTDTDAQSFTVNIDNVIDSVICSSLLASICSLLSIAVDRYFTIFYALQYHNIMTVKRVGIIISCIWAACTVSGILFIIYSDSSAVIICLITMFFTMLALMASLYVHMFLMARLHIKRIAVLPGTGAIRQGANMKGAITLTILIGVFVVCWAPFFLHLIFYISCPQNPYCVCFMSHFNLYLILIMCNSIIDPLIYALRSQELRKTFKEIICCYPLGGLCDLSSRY
Description: The Ca^2+ signalling functional assay was performed on a human recombinant MC4R stable cell line (CHO-K1/Gα15, GenScript). The cells were cultured at 37° C. and 5% CO2 with culture medium (90% Ham's F-12K (Kaighn's)+10% FBS+8 μg/mL Puromycin+100 μg/mL Hygromycin B). Cells were washed with PBS and then detached by incubation with 0.05% (w/v) Trypsin EDTA at 37° C. for 2-5 mins. Detached cells were suspended in Ham's F-12K (Kaighn's) (containing 10% FBS) and a 50 μL cell suspension was seeded into each well of a 384-well assay plate at a density of 15,000 cells/well. Cells were allowed to settle overnight at 37° C., 5% CO2. The next day, the assay plate was centrifuged and the media was replaced with dye (1×) in assay buffer (containing HBSS, HEPES 20 mM and probenecid 1 mM) and incubated for 1 h at 37° C. […] Then, 100 nL of compounds were transferred to the compound plate by the Echo machine. 30 μL assay buffer was added to the compounds plate and then shaken for 20 to 40 minutes. The plates were placed on the FLIPR and 15 μL of the compound was added to each well, then calcium flux signal was measured.

[4] = biological target: T4, human recombinant MC3R (Homo sapiens, UniProt P41968); test: Ca2+ signalling functional assay, MC3R stable cell line (CHO-K1/Gα15); settings: calcium flux functional assay
T4 construct: host or cells: CHO-K1/Gα15
T4 sequence (P41968 whole entry): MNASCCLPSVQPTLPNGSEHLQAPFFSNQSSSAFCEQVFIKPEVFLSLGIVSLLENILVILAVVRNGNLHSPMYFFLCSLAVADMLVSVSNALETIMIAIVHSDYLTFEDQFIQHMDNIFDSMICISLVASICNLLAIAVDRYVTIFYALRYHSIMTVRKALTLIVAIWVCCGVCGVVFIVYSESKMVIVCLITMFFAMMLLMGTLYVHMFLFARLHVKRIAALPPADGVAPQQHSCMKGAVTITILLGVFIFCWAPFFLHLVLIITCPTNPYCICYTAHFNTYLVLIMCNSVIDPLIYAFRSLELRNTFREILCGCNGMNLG
Description: The Ca^2+ signalling functional assay was performed on a human recombinant MC3R stable cell line (CHO-K1/Gα15, GenScript). The cells were cultured at 37° C. and 5% CO2 with culture medium (90% Ham's F-12K (Kaighn's)+10% FBS+200 μg/mL Zeocin+100 μg/mL Hygromycin B). Cells were washed with PBS and then detached by incubation with 0.05% (w/v) Trypsin EDTA at 37° C. for 2-5 mins. Detached cells were suspended in Ham's F-12K (Kaighn's) (containing 10% FBS) and a 50 μL cell suspension was seeded into each well of a 384-well assay plate at a density of 10,000 cells/well. Cells were allowed to settle overnight at 37° C., 5% CO2. […] The compounds and reference compound ACTH were diluted in 4 folds starting from 50 uM. Then, 500 nL of compounds were transferred to the compound plate by the Echo machine. 30 uL assay buffer was added into the compounds plate and then shaken for 20-40 minutes. The plates were then placed on the FLIPR Tetra High-Throughput Cellular Screening System (FLIPR®, Molecular Devices) and 15 μL of the compound was added to each well, then calcium flux signal was measured.

| Compound | IC50 [1] | IC50 [2] | IC50 [4] | further results |
| --- | --- | --- | --- | --- |
| CC(=O)N[C@@H](CCC(=O)O)C(=O)N[C@@H](Cc1c[nH]cn1)C(=O)N[C@@H](Cc1ccccc1)C(=O)N[C@@H](CCCNC(=N)N)C(=O)N[C@@H](Cc1c[nH]c2ccccc12)C(=O)NCC(=O)N[C@@H](CCCCN)C(=O)N1CCC[C@H]1C(=O)N[C@H](C(N)=O)C(C)C [KR-004] | > 10000 nM | – | – | – |
| CSCC[C@H](NC(=O)[C@H](CO)NC(=O)[C@H](Cc1ccc(O)cc1)NC(=O)[C@H](CO)NC(C)=O)C(=O)N[C@@H](CCC(=O)O)C(=O)N[C@@H](Cc1c[nH]cn1)C(=O)N[C@@H](Cc1ccccc1)C(=O)N[C@@H](CCCNC(=N)N)C(=O)N[C@@H](Cc1c[nH]c2ccccc12)C(=O)NCC(=O)N[C@@H](CCCCN)C(=O)N1CCC[C@H]1C(N)=O [KR-005] | – | 0.093 nM | – | IC50 [3]: 67.1 nM |
| CCCC[C@H](NC(C)=O)C(=O)N[C@H]1CCCCn2cc(nn2)C[C@@H](C(N)=O)NC(=O)[C@H](Cc2c[nH]c3ccccc23)NC(=O)[C@H](CCCNC(=N)N)NC(=O)[C@H](Cc2ccccc2)NC(=O)[C@H](Cc2c[nH]cn2)NC1=O [KR-008, Ac-Nle-[Lys(N3)-His-Phe-Arg-Trp-Pra]-NH2] (Ac-[Nle][Lys(N3)]HFRW[Pra]-NH2; triazole 2-7) | > 10000 nM | – | – | – |
| CC(=O)N[C@H]1CCCCn2cc(nn2)C[C@@H](C(N)=O)NC(=O)CNC(=O)[C@H](Cc2c[nH]c3ccccc23)NC(=O)[C@H](CCCNC(=N)N)NC(=O)[C@H](Cc2ccccc2)NC(=O)[C@H](Cc2c[nH]cn2)NC(=O)[C@H](CCC(=O)O)NC1=O [KR-010, Ac-[Lys(N3)-Glu-His-Phe-Arg-Trp-Gly-Pra]-NH2] (Ac-[Lys(N3)]EHFRWG[Pra]-NH2; triazole 1-8) | > 10000 nM | – | – | – |
| N=C(N)NCCC[C@@H]1NC(=O)[C@H](Cc2ccccc2)NC(=O)[C@H](Cc2c[nH]cn2)NC(=O)[C@H](CCC(=O)O)NC(=O)CSC[C@@H](C(N)=O)NC(=O)[C@H](Cc2c[nH]c3ccccc23)NC1=O [KR-011, Cyclo(-Ac-Glu-His-Phe-Arg-Trp-Cys)-NH2] ({CH2CO}-EHFRWC-NH2; thioether N-6 (inferred)) | – | – | > 50000 nM | MC5R IC50 [1]: Not fit |
| N=C(N)NCCC[C@@H]1NC(=O)[C@H](Cc2ccccc2)NC(=O)[C@H](Cc2c[nH]cn2)NC(=O)[C@H](CCC(=O)O)NC(=O)CSC[C@@H](C(N)=O)NC(=O)CNC(=O)[C@H](Cc2c[nH]c3ccccc23)NC1=O [KR-012, Cyclo(-Ac-Glu-His-Phe-Arg-Trp-Gly-Cys)-NH2] ({CH2CO}-EHFRWGC-NH2; thioether N-7) | – | – | – | MC5R IC50 [1]: Not fit |
| CC(=O)N[C@]1(C)CCCCCCC=CCCC[C@@](C)(C(N)=O)NC(=O)CNC(=O)[C@H](Cc2c[nH]c3ccccc23)NC(=O)[C@H](CCCNC(=N)N)NC(=O)[C@H](Cc2ccccc2)NC(=O)[C@H](Cc2c[nH]cn2)NC(=O)[C@H](CCC(=O)O)NC1=O [KR-015, Ac-R8-Glu-His-Phe-Arg-Trp-Gly-S5-NH2] (Ac-[R8]EHFRWG[S5]-NH2; staple 1-8) | > 10000 nM | – | – | – |
| CSCC[C@H](NC(=O)[C@H](CO)NC(=O)[C@H](Cc1ccc(O)cc1)NC(=O)[C@H](CO)NC(C)=O)C(=O)N[C@@H](CCC(=O)O)C(=O)N[C@@H](Cc1c[nH]cn1)C(=O)N(C)[C@@H](Cc1ccccc1)C(=O)N[C@@H](CCCNC(=N)N)C(=O)N[C@@H](Cc1c[nH]c2ccccc12)C(=O)NCC(=O)N[C@@H](CCCCN)C(=O)N1CCC[C@H]1C(=O)N[C@H](C(N)=O)C(C)C [KR-022, Ac-Ser-Tyr-Ser-Met-Glu-His-(NMe-Phe)-Arg-Trp-Gly-Lys-Pro-Val-NH2] | – | > 200 nM | > 50000 nM | – |
| CSCC[C@H](NC(=O)[C@H](CO)NC(=O)[C@H](Cc1ccc(O)cc1)NC(=O)[C@H](CO)NC(C)=O)C(=O)N[C@@H](CCC(=O)O)C(=O)N[C@@H](Cc1c[nH]cn1)C(=O)N(C)[C@H](Cc1ccccc1)C(=O)N[C@@H](CCCNC(=N)N)C(=O)N[C@@H](Cc1c[nH]c2ccccc12)C(=O)NCC(=O)N[C@@H](CCCCN)C(=O)N1CCC[C@H]1C(=O)N[C@H](C(N)=O)C(C)C [KR-025, Ac-Ser-Tyr-Ser-Met-Glu-His-(D-NMePhe)-Arg-Trp-Gly-Lys-Pro-Val-NH2] | – | – | > 50000 nM | – |
| CCCC[C@H](NC(C)=O)C(=O)N1CCC(=O)NCC[C@@H](C(=O)N[C@@H](Cc2c[nH]c3ccccc23)C(N)=O)NC(=O)[C@H](CCCNC(=N)N)NC(=O)[C@@H](Cc2ccccc2)NC(=O)[C@H](Cc2c[nH]cn2)NC(=O)C1 [KR-027, Ac-Nle-cyc(NGlu-His-DPhe-Arg-Dab)-Trp-NH2] | – | – | – | IC50 [3]: 84.1 nM |
| CCCC[C@H](NC(C)=O)C(=O)N1CCC(=O)NCCN(CC(=O)N[C@@H](Cc2c[nH]c3ccccc23)C(N)=O)C(=O)[C@H](CCCNC(=N)N)NC(=O)[C@@H](Cc2ccccc2)NC(=O)[C@H](Cc2c[nH]cn2)NC(=O)C1 [KR-029, Ac-Nle-cyc(NGlu-His-DPhe-Arg-NDab)-Trp-NH2] | > 10000 nM | > 50 nM | > 50000 nM | IC50 [3]: > 1000 nM |
| CCCC[C@H](NC(C)=O)C(=O)N[C@H]1CCCCn2cc(nn2)C[C@@H](C(N)=O)NC(=O)[C@H](Cc2c[nH]c3ccccc23)NC(=O)[C@H](CCCNC(=N)N)NC(=O)[C@@H](Cc2ccccc2)N(C)C(=O)[C@H](Cc2c[nH]cn2)NC1=O [KR-044, Ac-Nle-[Lys(N3)-His-(NMe-Dphe)-Arg-Trp-Pra]-NH2] (Ac-[Nle][Lys(N3)]H[dNMeF]RW[Pra]-NH2; triazole 2-7) | – | > 50 nM | > 50000 nM | – |
| CCCC[C@H](NC(C)=O)C(=O)N[C@H]1CCCCn2cc(nn2)C[C@@H](C(N)=O)NC(=O)[C@H](Cc2c[nH]c3ccccc23)NC(=O)[C@H](CCCNC(=N)N)N(C)C(=O)[C@@H](Cc2ccccc2)NC(=O)[C@H](Cc2c[nH]cn2)NC1=O [KR-045, Ac-Nle-[Lys(N3)-His-DPhe-NMeArg-Trp-Pra]-NH2] (Ac-[Nle][Lys(N3)]H[dF][NMeR]W[Pra]-NH2; triazole 2-7) | – | – | > 50000 nM | – |
| CCCC[C@H](NC(C)=O)C(=O)N[C@H]1CCCCn2cc(nn2)C[C@@H](C(N)=O)NC(=O)[C@H](Cc2c[nH]c3ccccc23)NC(=O)[C@H](CCCNC(=N)N)NC(=O)[C@@H](Cc2ccc(C(F)(F)F)cc2)NC(=O)[C@H](Cc2c[nH]cn2)NC1=O [KR-048, Ac-Nle-[Lys(N3)-His-Dphe(4-CF3)-Arg-Trp-Pra]-NH2] (Ac-[Nle][Lys(N3)]H[dPhe(4-CF3)]RW[Pra]-NH2; triazole 2-7) | – | – | > 50000 nM | – |
| CCCC[C@H](NC(C)=O)C(=O)N[C@H]1CCCCn2cc(nn2)C[C@@H](C(N)=O)NC(=O)[C@H](Cc2c[nH]c3ccccc23)NC(=O)[C@H](CCCNC(=N)N)N(C)C(=O)[C@@H](Cc2ccccc2)NC(=O)[C@H](Cc2c[nH]cn2)N(C)C1=O [KR-052, Ac-Nle-[Lys(N3)-NMeHis-DPhe-NMeArg-Trp-Pra]-NH2] (Ac-[Nle][Lys(N3)][NMeH][dF][NMeR]W[Pra]-NH2; triazole 2-7) | 195 nM | 2.68 nM | > 50000 nM | IC50 [3]: 122 nM |
| CCCC[C@H](NC(C)=O)C(=O)N[C@H]1CCCCn2cc(nn2)C[C@@H](C(=O)N[C@@H](CCCCN)C(N)=O)NC(=O)[C@H](Cc2c[nH]c3ccccc23)NC(=O)[C@H](CCCCNC(=N)N)NC(=O)[C@@H](Cc2ccccc2)NC(=O)[C@H](Cc2c[nH]cn2)NC1=O [KR-054, Ac-Nle-[Lys(N3)-His-DPhe-HArg-Trp-Pra]-Lys-NH2] (Ac-[Nle][Lys(N3)]H[dF][hArg]W[Pra]K-NH2; triazole 2-7) | – | 0.093 nM | – | – |
| CCCC[C@H](NC(C)=O)C(=O)N[C@H]1CCCCn2cc(nn2)C[C@@H](C(=O)N[C@@H](CCCC(N)=O)C(N)=O)NC(=O)[C@H](Cc2c[nH]c3ccccc23)NC(=O)[C@H](CCCNC(=N)N)NC(=O)[C@@H](Cc2ccccc2)NC(=O)[C@H](Cc2c[nH]cn2)NC1=O [KR-057, Ac-Nle-[Lys(N3)-His-DPhe-Arg-Trp-Pra]-Hgln-NH2] (Ac-[Nle][Lys(N3)]H[dF]RW[Pra][Aad](NH2)-NH2; triazole 2-7) | – | 0.024 nM | – | – |
| CCCC[C@H](NC(C)=O)C(=O)N[C@H]1CCCCn2cc(nn2)C[C@@H](C(=O)N[C@@H](CCCCN)C(N)=O)NC(=O)[C@H](Cc2c[nH]c3ccccc23)NC(=O)[C@H](CCCNC(=N)N)NC(=O)[C@@H](Cc2ccc(OC)cc2)NC(=O)[C@H](Cc2c[nH]cn2)NC1=O [KR-058, Ac-Nle-[Lys(N3)-His-DTyr(Me)-Arg-Trp-Pra]-Lys-NH2] (Ac-[Nle][Lys(N3)]H[dY](Me)RW[Pra]K-NH2; triazole 2-7) | 195 nM | 2.68 nM | > 50000 nM | IC50 [3]: 122 nM |
| CCCC[C@H](NC(C)=O)C(=O)N[C@H]1Cc2cn(nn2)CCCC[C@@H](C(=O)N[C@@H](CCCCN)C(N)=O)NC(=O)[C@H](Cc2c[nH]c3ccccc23)NC(=O)[C@H](CCCNC(=N)N)NC(=O)[C@@H](Cc2ccccc2)NC(=O)[C@H](Cc2c[nH]cn2)NC1=O [KR-067, Ac-Nle-[Pra-His-DPhe-Arg-Trp-Lys(N3)]-Lys-NH2] (Ac-[Nle][Pra]H[dF]RW[Lys(N3)]K-NH2; triazole 2-7) | – | 0.11 nM | – | – |
| CCCC[C@H](NC(C)=O)C(=O)N[C@H]1CCCn2cc(nn2)CC[C@@H](C(=O)N[C@@H](CCCCN)C(N)=O)NC(=O)[C@H](Cc2c[nH]c3ccccc23)NC(=O)[C@H](CCCNC(=N)N)NC(=O)[C@@H](Cc2ccccc2)NC(=O)[C@H](Cc2c[nH]cn2)NC1=O [KR-068, Ac-Nle-[Orn(N3)-His-DPhe-Arg-Trp-Hpra]-Lys-NH2] (Ac-[Nle][Orn(N3)]H[dF]RW[Hpra]K-NH2; triazole 2-7) | 40.3 nM | 0.04 nM | – | – |
| CCCC[C@H](NC(C)=O)C(=O)N[C@H]1CCCCn2cc(nn2)C[C@H](C(=O)N[C@@H](CCCCN)C(N)=O)NC(=O)[C@H](Cc2c[nH]c3ccccc23)NC(=O)[C@H](CCCNC(=N)N)NC(=O)[C@@H](Cc2ccccc2)NC(=O)[C@H](Cc2c[nH]cn2)NC1=O [KR-070, Ac-Nle-[Lys(N3)-His-DPhe-Arg-Trp-DPra]-Lys-NH2] (Ac-[Nle][Lys(N3)]H[dF]RW[dPra]K-NH2; triazole 2-7) | – | – | – | IC50 [3]: 84.1 nM |
| Ac-EHFRWGKP-NH2 [KR-007] | > 10000 nM | – | – | – |
